From patent publication US20240043400A1, “Octahydroisoquinolinyl Derivatives” (UCB Biopharma SRL, priority 2020, published 2024) come the findings set out here.

Data set [1] has as its target T1, human GABAA receptor α1β2 and γ2 subunits (Homo sapiens, UniProt P14867+P18507+P47870).
T1 construct: expressed in transfected cells
In words: Automated patch clamp studies on the GABAA receptor cells. It counts as cell-based. The following applies: CHO-K1, 10 μM compound, 15 μM GABA, Table B. As for the experimental part:
CHO-K1 cells stably expressing human GABAA receptor α1β2 and γ2 subunits were used. The cells were harvested using trypsin and maintained in serum-free medium at room temperature. The cells were washed and re-suspended in extracellular solution before testing.
Experiments on human GABAA (α1β2γ2) channels were conducted using an automated patch clamp assay (lonFlux™ HT). The external solution for recording GABAA currents was composed of sodium chloride 137 mM, potassium chloride 4 mM, calcium chloride 1.8 mM, magnesium chloride 1 mM, HEPES 10 mM, and glucose 10 mM. Both external and internal solutions were titrated with NaOH or KOH to obtain a pH of 7.35 and 7.3, respectively. The internal pipette solution contained potassium fluoride 70 mM, potassium chloride 60 mM, sodium chloride 70 mM, HEPES 5 mM, EGTA 5 mM, and Magnesium ATP 4 mM. The final concentration of vehicle used to dilute compounds was 0.33% DMSO in each well. Bicuculline (0.032 to 100 μM) was used as positive control inhibitor. GABA (15 μM) was used as agonist. All recordings were obtained from a holding potential of −60 mV.
The compound addition sequence was the following: one addition of the EC80 concentration of GABA was added to establish baseline response. Each concentration of compound was applied for 30 seconds followed by the addition of 15 μM GABA in the presence of the compound for 2 seconds. The process was repeated with the next ascending concentration of compound. Peak inward currents in response to the GABA additions in the presence of a single concentration of compound were measured. All compound data have been normalized to the baseline peak current induced by addition of 15 μM GABA for 2 seconds.

The target in a further data set is T2, dopamine D1 receptor (Homo sapiens, UniProt P21728).
T2 construct: host or cells: LMtk (Ltk-) mouse fibroblast cells, kept under Geneticin
T2 sequence (P21728 whole entry): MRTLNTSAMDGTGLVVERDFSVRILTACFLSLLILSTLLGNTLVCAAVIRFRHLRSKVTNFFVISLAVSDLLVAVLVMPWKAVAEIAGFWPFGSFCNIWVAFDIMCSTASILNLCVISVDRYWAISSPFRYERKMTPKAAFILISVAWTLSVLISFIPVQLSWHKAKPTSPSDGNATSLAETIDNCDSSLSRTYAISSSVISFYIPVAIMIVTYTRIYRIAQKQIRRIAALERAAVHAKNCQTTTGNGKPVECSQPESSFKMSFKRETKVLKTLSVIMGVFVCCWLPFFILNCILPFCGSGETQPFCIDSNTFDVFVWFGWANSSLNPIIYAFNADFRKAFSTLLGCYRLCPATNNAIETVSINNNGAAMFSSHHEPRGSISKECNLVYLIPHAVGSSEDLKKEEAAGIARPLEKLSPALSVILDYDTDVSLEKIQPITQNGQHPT
Briefly: cAMP HTRF potentiation assay (in the presence of dopamine). The data set is classed as cell-based. The following applies: potentiation of cAMP with [EC20] of dopamine (1.1 nM); LMtk (Ltk−) mouse fibroblast cells expressing the dopamine D1 receptor. Here is the method: The potentiation assay measures the ability of compounds to increase the levels of cAMP produced by a low-threshold concentration of dopamine. The concentration of dopamine used ([EC20]) is designed to produce 20% stimulation compared to the maximal response (100%) seen with increasing the concentration of dopamine. To measure this potentiation we incubate increasing concentrations of the compound with the [EC20] of dopamine and measure the potentiation as increases in cAMP production. The pEC50 of a compound is the −log 10 of the concentration of the compound which produces 50% of the potentiation of the cAMP levels and the Erel is the relative efficacy, defined as the maximal % potentiation produced by the compound compared to the maximal response produced by increasing concentrations of dopamine (Erel of 1=dopamine maximum response).
Cells were cultured at 37° C. in a humidified atmosphere of 5% CO2. Cells were grown in DMEM-F12+GlutaMAX™-1 medium (GIBCO®, Invitrogen, Merelbeke, Belgium) containing 10% fetal bovine serum (BioWhittaker®, Lonza, Verviers, Belgium), 400 μg/mL Geneticin (GIBCO®), 100 IU/mL Penicillin and 100 IU/mL Streptomycin (Pen-Strep solution, BioWhittaker®).
The measurement of changes in intracellular cyclic adenosinemonophopshpate (cAMP) was determined using the HTRF cAMP dynamic assay kit from CisBio (Codolet, France). Using homogenous time-resolved fluoresence technology, the assay is based on competition between native cAMP produced by cells and cAMP labelled with the dye d2. The tracer binding is determined by an anti-cAMP antibody labeled with cryptate. The effects of the compound alone (agonism) was determined by performing the assay in the absence of dopamine, whilst the effect of the compound as a positive allosteric modulator (PAM) was determined in the presence of an EC20 concentration of dopamine. Cells (20,000 per well) are incubated in 384 plates for 1 h at rt in a final volume of 20 μLHBSS (Lonza, with calcium, magnesium and HEPES buffer 20 mM, pH 7.4) containing: isobutyl methylxanthine (Sigma, 0.1 mM final), varying concentrations of test compound (typically 10^−9.5 M to 10^−4.5 M) in the presence and absence of dopamine (1.1 nM final). The reaction is then terminated and the cells lysed by adding the d2 detection reagent in lysis buffer (10 μL) and the cryptate reagent in lysis buffer (10 μL) according to manufacturer's instructions. This is then incubated for a further 60 min at rt and changes in HTRF fluorescent emission ratio determined according to manufacturer's instructions using an Envision plate reader (Perkin Elmer, Zaventem, Belgium) with laser excitation. All incubations were performed in duplicate and results were compared to a concentration-effect curve to dopamine. (10^−11 M to 10^−6 M).
Data was analyzed using Excel and PRISM (GraphPad Software) to obtain pEC50 and Erel using the 4-parameter logistic equation (DeLean et al, 1978) where Erel is the fitted maximal response of the test compound minus basal expressed as a percentage relative to that obtained with dopamine which was defined as 100%.

Another data set concerns the target T3, CYP3A4 (Homo sapiens, UniProt P08684).
T3 construct: cryopreserved human microsomes (pooled donors); from tissue
In words: In vitro assessment of CYP3A4 inhibition potential using cryopreserved human microsomes. It counts as in vitro ADME. The note with it: human, cryopreserved human microsomes (pooled donors), probe midazolam 2.5 μM (1-hydroxymidazolam formation), 20 μM compound, human microsomes 0.25 mg/ml, Table C. Here is the method: The objective of the human microsome assay is to characterize the inhibition potential of Compound of formula (I) by measuring the CYP3A4 activities after its co-incubation with midazolam, a specific CYP3A4 substrate.
To this aim, cryopreserved human microsomes (pooled donors) are divided on a 48 well collagen coated plate so that the final concentration is 0.25 mg/ml. The UCB compound is then added in the wells at 20 μM concentration in duplicate. After 30 min incubation, midazolam is added at 2.5 μM concentration. After 15 min, an aliquot is removed and placed into an equal volume of methanol containing internal standard. The samples are centrifuged at 2500 rpm at 4° C. for 20 min. An aliquot of supernatant is diluted with deionised water and levels of 1-hydroxymidazolam is quantified using generic LC MS/MS methods.
The concentrations are compared to those obtained after midazolam incubation at the same concentration but without UCB compound pre-incubation. The results are expressed as % of inhibition.

T1 sequence (P14867 28-456): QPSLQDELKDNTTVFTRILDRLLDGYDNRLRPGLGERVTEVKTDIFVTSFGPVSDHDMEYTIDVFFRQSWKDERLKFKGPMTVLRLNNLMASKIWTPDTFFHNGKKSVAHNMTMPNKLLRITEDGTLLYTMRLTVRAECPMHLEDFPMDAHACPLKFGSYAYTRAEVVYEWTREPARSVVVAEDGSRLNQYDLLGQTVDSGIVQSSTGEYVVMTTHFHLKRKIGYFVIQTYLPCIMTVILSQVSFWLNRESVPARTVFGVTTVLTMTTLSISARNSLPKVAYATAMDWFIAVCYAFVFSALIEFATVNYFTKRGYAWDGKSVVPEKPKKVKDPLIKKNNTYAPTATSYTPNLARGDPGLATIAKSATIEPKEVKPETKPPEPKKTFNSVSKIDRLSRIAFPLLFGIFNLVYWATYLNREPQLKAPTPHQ
T1 sequence (P47870 25-512 limits assumed): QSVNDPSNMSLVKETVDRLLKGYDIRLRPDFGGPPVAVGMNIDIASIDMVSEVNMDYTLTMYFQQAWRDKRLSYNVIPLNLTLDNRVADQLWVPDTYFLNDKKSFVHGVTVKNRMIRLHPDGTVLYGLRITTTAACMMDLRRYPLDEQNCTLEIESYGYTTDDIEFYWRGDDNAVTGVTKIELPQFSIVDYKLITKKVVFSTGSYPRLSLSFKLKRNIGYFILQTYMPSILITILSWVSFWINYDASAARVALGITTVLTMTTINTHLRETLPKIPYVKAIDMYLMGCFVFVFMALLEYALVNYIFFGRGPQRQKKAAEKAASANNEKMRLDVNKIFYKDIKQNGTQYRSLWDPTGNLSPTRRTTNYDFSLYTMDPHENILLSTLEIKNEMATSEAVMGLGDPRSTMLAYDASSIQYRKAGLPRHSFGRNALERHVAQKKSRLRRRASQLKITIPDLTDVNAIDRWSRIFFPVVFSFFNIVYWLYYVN
T1 sequence (P18507 40-475): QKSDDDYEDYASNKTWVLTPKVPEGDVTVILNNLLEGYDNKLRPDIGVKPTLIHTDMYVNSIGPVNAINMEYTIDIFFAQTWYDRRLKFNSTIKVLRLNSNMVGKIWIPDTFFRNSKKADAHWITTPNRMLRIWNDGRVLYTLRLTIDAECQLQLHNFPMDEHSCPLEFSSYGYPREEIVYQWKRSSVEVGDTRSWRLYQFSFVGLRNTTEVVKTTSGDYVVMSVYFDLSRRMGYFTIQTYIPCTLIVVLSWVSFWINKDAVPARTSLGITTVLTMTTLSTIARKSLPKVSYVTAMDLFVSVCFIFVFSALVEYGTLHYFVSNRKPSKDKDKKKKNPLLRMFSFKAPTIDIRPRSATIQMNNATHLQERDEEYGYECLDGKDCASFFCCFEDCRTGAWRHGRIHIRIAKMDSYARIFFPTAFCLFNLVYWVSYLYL
T3 sequence (P08684 whole entry): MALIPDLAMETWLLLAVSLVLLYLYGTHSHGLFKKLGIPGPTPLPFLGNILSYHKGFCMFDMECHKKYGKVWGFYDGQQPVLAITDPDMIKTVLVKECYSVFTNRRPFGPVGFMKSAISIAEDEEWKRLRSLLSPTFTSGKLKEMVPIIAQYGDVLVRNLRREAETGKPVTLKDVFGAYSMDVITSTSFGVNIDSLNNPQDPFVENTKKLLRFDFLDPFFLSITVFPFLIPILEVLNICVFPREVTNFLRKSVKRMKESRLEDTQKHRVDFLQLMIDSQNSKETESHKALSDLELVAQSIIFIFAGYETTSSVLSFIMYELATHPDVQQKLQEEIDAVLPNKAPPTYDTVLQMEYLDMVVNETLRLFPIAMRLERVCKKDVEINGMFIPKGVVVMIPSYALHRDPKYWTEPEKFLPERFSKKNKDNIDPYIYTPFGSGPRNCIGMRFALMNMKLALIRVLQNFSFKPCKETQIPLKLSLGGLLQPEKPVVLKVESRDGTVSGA

Consider `C[C@H]1[C@H]2CCC[C@@H]([C@H](O)C(F)(F)F)[C@@H]2CCN1C(=O)Cc1c(Cl)cnc(CO)c1Cl` [Example 12, 1-[(1S,4aR,5R,8aS)-1-methyl-5-[(1 S)-2,2,2-trifluoro-1-hydroxy-ethyl]-3,4,4a,5,6,7,8,8a-octahydro-1H-isoquinolin-2-yl]-2-[3,5-dichloro-2-(hydroxymethyl)-4-pyridyl]ethanone], for which the inhibition at 10 µM in data set [1] worked out at 9.6%. Also, the EC50 at dopamine D1 receptor was 15.8 nM. The inhibition at 15 min, 20 μM against CYP3A4 lay within 20 to 40%.
For the compound `C[C@H]1[C@H]2CCC[C@@H]([C@H](O)C(F)(F)F)[C@@H]2CCN1C(=O)Cc1c(Cl)cnc(C(C)(C)O)c1Cl` [Example 13, 1-[(1S,4aR,5R,8aS)-1-methyl-5-[(1S)-2,2,2-trifluoro-1-hydroxy-ethyl]-3,4,4a,5,6,7,8,8a-octahydro-1H-isoquinolin-2-yl]-2-[3,5-dichloro-2-(1-hydroxy-1-methyl-ethyl)-4-pyridyl]ethanone], the inhibition at 10 µM in data set [1] was -8%. Also, on dopamine D1 receptor, the EC50 was 50.1 nM. The inhibition at 15 min, 20 μM against CYP3A4 was in the range of 20 to 40%.
The corresponding values for `C[C@H]1[C@H]2CCC[C@@H]([C@H](O)C(F)(F)F)[C@@H]2CCN1C(=O)Cc1c(Cl)cc(F)c2[nH]nc(Cl)c12` [Example 14, 1-[(1 S,4aR,5R,8aS)-1-methyl-5-[(1 S)-2,2,2-trifluoro-1-hydroxy-ethyl]-3,4,4a,5,6,7,8,8a-octahydro-1H-isoquinolin-2-yl]-2-(3,5-dichloro-7-fluoro-1H-indazol-4-yl)ethanone] are -8%, 31.6 nM and 40 to 60%.
